Reference: patent US7491533B2, “Polynucleotides encoding an isolated β-islet cell two-pore domain potassium channel” (Metabolex, Inc., priority 2002, dated 2009)

Target: T1, BIK channels (Homo sapiens, UniProt Q96T55, A277E)
T1 construct: expressed in transfected cells
T1 sequence (Q96T55 1-294 isoform Q96T55-3 A277E): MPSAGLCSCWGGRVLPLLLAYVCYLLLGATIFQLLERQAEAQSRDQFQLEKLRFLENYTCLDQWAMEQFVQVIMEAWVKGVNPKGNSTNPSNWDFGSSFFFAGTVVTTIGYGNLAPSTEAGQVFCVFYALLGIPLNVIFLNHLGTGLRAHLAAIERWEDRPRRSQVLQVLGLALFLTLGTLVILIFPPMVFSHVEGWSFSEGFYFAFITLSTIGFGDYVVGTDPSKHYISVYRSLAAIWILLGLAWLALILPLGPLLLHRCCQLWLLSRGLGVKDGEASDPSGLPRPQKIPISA
Test: FlexStation / FLIPR Membrane Potential Dye assay in stable HEK293 transfectants
Assay type: cell-based
Description: HEK293 cells stably transfected with pcDNA3.1 (circles) or the same vector allowing expression of BIK (squares) or TASK-2 (triangles) were plated in 96 well assay plates 24 h prior to analysis. Cells were incubated in 100 μl of 0.5×FLIPR Membrane Potential Dye (Molecular Devices) for 30 min. Methanadamide dilutions in DMSO were added to the wells by a FlexStation device (Molecular Devices), the fluorescence intensity changes were recorded before, during and after addition of the compound. The fluorescence intensity changes are plotted as the percent increase from the basal value recorded prior to compound addition. The values are the mean and range of duplicate wells. Similar results were obtained in three other independent experiments.
High level expression of a background/leak potassium channel such as BIK in fibroblasts results in hyperpolarization of the plasma membrane. Further, monitoring the membrane potential of these cells provides an assay for detecting small molecule blockers of BIK. We made stable HEK293 cell lines expressing BIK (and the well characterized background channel TASK2 for comparison) and characterized them using a FLIPR Membrane Potential Dye and FlexStation microplate fluorometer. […] Furthermore, BIK and TASK2 cells display a 3 to 5-fold greater change in fluorescence upon depolarization with 30 mM KCl compared to vector transfected stable cell lines. […]

With CCCCC/C=C\C/C=C\C/C=C\C/C=C\CCCC(=O)N[C@H](C)CO [Methanandamide] the “selectivity of BIK channel inactivation (result in words)” value (HEK293 stably transfected with pcDNA3.1, BIK or TASK-2, fluorescence change as percent increase from basal) was “partially selective inactivator of BIK” and the “fold greater increase in fluorescence (depolarization) in BIK cells than in TASK2 or vector control cells” value (compound at 100 μM, HEK293 cells stably expressing BIK vs TASK2 or vector (pcDNA3.1)) was 3 fold.
